Test results: ChEMBL document CHEMBL5375999, “Discovery of a Dual Tubulin and Neuropilin-1 (NRP1) Inhibitor with Potent In Vivo Anti-Tumor Activity via Pharmacophore-based Docking Screening, Structure Optimization, and Biological Evaluation” (J Med Chem, 2023)
Activity calls are given as the source filed them. No cut-off for these calls is given here.

How the values were obtained:
Tubulin (Homo sapiens) [1] = molecular target: T1, Tubulin (Homo sapiens) (UniProt P68371+Q9H4B7+P0DPH7+P68366+Q13509+Q71U36+P04350+Q3ZCM7+P07437+P68363+Q9BQE3+Q6PEY2+Q13885+Q9BVA1+Q9BUF5); test: Inhibition of tubulin polymerization (unknown origin) at 12 uM by spectrophotometric analysis relative to control; type: protein-complex assay
Tubulin = test: Inhibition of tubulin polymerization (unknown origin) by spectrophotometric analysis; type: protein-complex assay, Homo sapiens
[2] = molecular target: Vascular endothelial growth factor receptor 1 (Homo sapiens, UniProt P17948); test: Inhibition of VEGFR1 (unknown origin)
Vascular endothelial growth factor receptor 1, sequence (P17948 whole entry): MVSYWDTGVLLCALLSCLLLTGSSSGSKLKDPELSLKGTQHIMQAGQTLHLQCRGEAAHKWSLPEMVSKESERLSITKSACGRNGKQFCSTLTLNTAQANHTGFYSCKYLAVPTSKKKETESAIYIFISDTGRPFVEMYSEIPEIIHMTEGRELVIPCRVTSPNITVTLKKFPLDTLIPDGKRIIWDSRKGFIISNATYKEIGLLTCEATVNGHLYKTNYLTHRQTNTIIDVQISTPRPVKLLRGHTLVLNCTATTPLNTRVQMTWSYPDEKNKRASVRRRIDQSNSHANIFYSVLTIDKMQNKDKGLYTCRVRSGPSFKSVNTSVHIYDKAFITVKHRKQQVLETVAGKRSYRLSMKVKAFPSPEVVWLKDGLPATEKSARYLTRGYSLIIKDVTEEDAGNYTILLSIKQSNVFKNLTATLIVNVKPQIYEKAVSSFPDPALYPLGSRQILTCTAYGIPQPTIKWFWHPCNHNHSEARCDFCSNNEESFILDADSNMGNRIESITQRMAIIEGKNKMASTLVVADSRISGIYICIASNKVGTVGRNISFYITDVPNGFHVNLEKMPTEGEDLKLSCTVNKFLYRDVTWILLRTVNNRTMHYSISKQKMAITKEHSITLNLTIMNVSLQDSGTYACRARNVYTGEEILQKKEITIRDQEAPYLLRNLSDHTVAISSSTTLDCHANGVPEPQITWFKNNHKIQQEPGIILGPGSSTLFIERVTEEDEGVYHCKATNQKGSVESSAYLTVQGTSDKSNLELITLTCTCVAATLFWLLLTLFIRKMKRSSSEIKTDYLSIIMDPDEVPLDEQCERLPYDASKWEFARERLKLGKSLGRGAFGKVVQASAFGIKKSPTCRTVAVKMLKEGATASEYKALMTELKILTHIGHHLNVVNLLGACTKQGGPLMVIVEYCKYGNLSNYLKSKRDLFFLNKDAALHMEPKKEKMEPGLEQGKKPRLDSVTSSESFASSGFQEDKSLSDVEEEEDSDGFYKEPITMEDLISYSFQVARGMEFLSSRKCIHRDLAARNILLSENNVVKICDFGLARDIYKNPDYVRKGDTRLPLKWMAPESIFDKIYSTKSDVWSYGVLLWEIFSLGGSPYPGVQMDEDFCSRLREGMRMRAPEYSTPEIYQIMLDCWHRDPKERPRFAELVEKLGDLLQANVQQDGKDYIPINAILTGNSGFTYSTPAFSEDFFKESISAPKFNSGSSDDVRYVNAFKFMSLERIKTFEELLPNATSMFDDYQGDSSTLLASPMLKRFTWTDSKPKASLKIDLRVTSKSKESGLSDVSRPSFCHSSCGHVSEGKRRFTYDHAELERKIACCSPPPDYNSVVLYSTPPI

[3] = molecular target: Vascular endothelial growth factor receptor 3 (Homo sapiens, UniProt P35916); test: Inhibition of VEGFR3 (unknown origin)
[4] = molecular target: AP2-associated protein kinase 1 (Homo sapiens, UniProt Q2M2I8); test: Inhibition of AAK1 (unknown origin)
[5] = molecular target: Cytoplasmic tyrosine-protein kinase BMX (Homo sapiens, UniProt P51813); test: Inhibition of BMX (unknown origin)
[6] = molecular target: Serine/threonine-protein kinase B-raf (Homo sapiens, UniProt P15056); test: Inhibition of BRAF (unknown origin)
Serine/threonine-protein kinase B-raf, sequence (P15056 whole entry): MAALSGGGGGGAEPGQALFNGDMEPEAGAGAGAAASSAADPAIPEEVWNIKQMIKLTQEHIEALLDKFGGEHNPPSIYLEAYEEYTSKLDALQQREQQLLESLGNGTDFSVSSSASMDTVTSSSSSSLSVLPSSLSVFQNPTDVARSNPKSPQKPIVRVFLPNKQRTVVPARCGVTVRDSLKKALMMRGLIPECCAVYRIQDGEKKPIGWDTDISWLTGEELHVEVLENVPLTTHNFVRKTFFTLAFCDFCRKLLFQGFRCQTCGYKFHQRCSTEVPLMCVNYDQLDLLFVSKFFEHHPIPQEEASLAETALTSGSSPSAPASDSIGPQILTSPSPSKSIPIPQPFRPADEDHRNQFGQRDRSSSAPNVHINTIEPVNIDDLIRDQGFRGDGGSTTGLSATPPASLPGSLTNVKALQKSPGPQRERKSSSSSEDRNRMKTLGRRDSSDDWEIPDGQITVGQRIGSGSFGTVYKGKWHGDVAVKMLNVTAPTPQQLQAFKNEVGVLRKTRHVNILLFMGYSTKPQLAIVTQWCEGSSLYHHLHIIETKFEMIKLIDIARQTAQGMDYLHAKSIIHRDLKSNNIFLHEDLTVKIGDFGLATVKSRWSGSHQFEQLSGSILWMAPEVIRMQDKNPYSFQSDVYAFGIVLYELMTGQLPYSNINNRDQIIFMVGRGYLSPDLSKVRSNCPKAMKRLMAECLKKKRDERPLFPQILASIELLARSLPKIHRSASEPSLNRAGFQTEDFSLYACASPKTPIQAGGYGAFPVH

[7] = molecular target: Cyclin-dependent kinase 3 (Homo sapiens, UniProt Q00526); test: Inhibition of CDK3 (unknown origin)
[8] = molecular target: Cyclin-dependent kinase 5 (Homo sapiens, UniProt Q00535); test: Inhibition of CDK5 (unknown origin)
[9] = molecular target: Dual specificity protein kinase TTK (Homo sapiens, UniProt P33981); test: Inhibition of TTK (unknown origin)
[10] = molecular target: Mitogen-activated protein kinase kinase kinase 20 (Homo sapiens, UniProt Q9NYL2); test: Inhibition of ZAK (unknown origin)
[11] = molecular target: Tyrosine-protein kinase HCK (Homo sapiens, UniProt P08631); test: Inhibition of HCK (unknown origin)
[12] = molecular target: Serine/threonine-protein kinase MAK (Homo sapiens, UniProt P20794); test: Inhibition of MAK (unknown origin)
[13] = molecular target: Hepatocyte growth factor receptor (Homo sapiens, UniProt P08581); test: Inhibition of MET (unknown origin)
Hepatocyte growth factor receptor, sequence (P08581 whole entry): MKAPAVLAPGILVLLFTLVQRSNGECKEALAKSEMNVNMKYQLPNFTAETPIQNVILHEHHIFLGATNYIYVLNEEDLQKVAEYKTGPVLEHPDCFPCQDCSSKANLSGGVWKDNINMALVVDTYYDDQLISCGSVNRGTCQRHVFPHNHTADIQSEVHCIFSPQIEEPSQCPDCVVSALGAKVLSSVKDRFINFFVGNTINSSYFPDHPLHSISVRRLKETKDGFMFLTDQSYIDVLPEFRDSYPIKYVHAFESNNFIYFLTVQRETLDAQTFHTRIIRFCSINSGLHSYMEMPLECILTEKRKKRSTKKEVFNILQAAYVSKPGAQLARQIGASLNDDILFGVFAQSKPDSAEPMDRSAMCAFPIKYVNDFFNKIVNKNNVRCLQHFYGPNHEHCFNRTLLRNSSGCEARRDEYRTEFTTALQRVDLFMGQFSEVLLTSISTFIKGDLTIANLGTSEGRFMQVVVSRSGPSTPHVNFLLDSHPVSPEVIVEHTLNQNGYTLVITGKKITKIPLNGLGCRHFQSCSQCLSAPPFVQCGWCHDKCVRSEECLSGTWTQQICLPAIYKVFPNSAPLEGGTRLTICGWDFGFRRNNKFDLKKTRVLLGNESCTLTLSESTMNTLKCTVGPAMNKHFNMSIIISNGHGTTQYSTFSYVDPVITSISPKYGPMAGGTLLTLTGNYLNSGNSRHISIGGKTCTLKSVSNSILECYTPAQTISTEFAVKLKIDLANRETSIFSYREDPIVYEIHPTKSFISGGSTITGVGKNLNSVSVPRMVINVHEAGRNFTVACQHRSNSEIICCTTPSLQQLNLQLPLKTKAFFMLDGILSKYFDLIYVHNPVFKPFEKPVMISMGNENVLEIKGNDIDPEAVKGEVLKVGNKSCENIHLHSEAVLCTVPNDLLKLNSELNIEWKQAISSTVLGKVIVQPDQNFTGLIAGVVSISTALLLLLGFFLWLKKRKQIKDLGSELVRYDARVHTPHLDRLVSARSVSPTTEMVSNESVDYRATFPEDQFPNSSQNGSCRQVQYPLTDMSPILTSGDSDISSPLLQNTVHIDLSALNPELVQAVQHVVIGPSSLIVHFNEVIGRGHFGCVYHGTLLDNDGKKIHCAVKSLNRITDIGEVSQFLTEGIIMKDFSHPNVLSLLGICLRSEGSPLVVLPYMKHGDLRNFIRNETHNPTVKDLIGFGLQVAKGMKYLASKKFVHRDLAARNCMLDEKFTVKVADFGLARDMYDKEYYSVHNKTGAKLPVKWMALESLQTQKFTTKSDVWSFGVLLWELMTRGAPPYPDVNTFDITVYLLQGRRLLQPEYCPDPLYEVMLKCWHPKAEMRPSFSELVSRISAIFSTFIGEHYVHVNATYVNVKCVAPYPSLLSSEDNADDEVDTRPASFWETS

[14] = molecular target: Proto-oncogene tyrosine-protein kinase ROS (Homo sapiens, UniProt P08922); test: Inhibition of ROS1 (unknown origin)
Tubulin (Homo sapiens) [15] = molecular target: T1, Tubulin (Homo sapiens); test: Inhibition of tubulin polymerization in human PC-3 cells assessed as cell shrinkage at 0.1 to 12.5 uM incubated for 48 hrs by immunofluorescence assay; type: cell-based; details: dose 0.1-12.5 µM
Tubulin (Homo sapiens) [16] = molecular target: T1, Tubulin (Homo sapiens); test: Inhibition of tubulin polymerization in human PC-3 cells assessed as nucleus disappearance at 2.5 to 12.5 uM incubated for 48 hrs by immunofluorescence assay; type: cell-based; details: dose 2.5-12.5 µM
CWR22R = test: Cytotoxicity against human 22Rv1 cells assessed as inhibition of cell viability incubated for 48 hrs by MTT assay; type: functional, cell-based
PC-3 [17] = test: Induction of cell cycle arrest in human PC-3 cells assessed as accumulation of cells at G2/M phase at 0.1 uM by flow cytometry analysis (reference value: 3.24%); type: functional
PC-3 [18] = test: Induction of cell cycle arrest in human PC-3 cells assessed as S phase cells at 0.1 uM by flow cytometry analysis (reference value: 2%); type: functional
PC-3 [19] = test: Induction of cell cycle arrest in human PC-3 cells assessed as accumulation of cells at G2/M phase at 2.5 uM by flow cytometry analysis (reference value: 3.24%); type: functional
PC-3 [20] = test: Induction of cell cycle arrest in human PC-3 cells assessed as S phase cells at 2.5 uM by flow cytometry analysis (reference value: 2%); type: functional
PC-3 [21] = test: Induction of cell cycle arrest in human PC-3 cells assessed as G0/G1 phase cells at 12.5 uM by flow cytometry analysis (reference value: 94.76%); type: functional
PC-3 [22] = test: Induction of cell cycle arrest in human PC-3 cells assessed as accumulation of cells at G2/M phase at 12.5 uM by flow cytometry analysis (reference value: 3.24%); type: functional
PC-3 [23] = test: Induction of apoptosis in human PC-3 cells assessed as viable cells at 0.1 uM by Annexin-V FITC staining based flow cytometry analysis (reference value: 96.8%); type: functional; details: read-out: Activity
PC-3 [24] = test: Induction of apoptosis in human PC-3 cells assessed as viable cells at 0.5 uM by Annexin-V FITC staining based flow cytometry analysis (reference value: 96.8%); type: functional; details: read-out: Activity
PC-3 [25] = test: Induction of apoptosis in human PC-3 cells assessed as early apoptotic cells at 0.5 uM by Annexin-V FITC staining based flow cytometry analysis (reference value: 1.51%); type: functional
PC-3 [26] = test: Induction of apoptosis in human PC-3 cells assessed as late apoptotic cells at 0.5 uM by Annexin-V FITC staining based flow cytometry analysis (reference value: 1.67%); type: functional
PC-3 [27] = test: Induction of apoptosis in human PC-3 cells assessed as early apoptotic cells at 2.5 uM by Annexin-V FITC staining based flow cytometry analysis (reference value: 1.51%); type: functional
PC-3 [28] = test: Induction of apoptosis in human PC-3 cells assessed as viable cells at 12.5 uM by Annexin-V FITC staining based flow cytometry analysis (reference value: 96.8%); type: functional; details: read-out: Activity
PC-3 [29] = test: Induction of apoptosis in human PC-3 cells assessed as early apoptotic cells at 12.5 uM by Annexin-V FITC staining based flow cytometry analysis (reference value: 1.51%); type: functional
PC-3 [30] = test: Induction of apoptosis in human PC-3 cells assessed as late apoptotic cells at 12.5 uM by Annexin-V FITC staining based flow cytometry analysis (reference value: 1.67%); type: functional
PC-3 [31] = test: Induction of apoptosis in human PC-3 cells assessed as increase in cleaved caspase-3 expression at 0.5 to 12.5 uM incubated for 48 hrs by Western blotting analysis; type: functional, cell-based; details: dose 0.5-12.5 µM
[32] = molecular target: Vascular endothelial growth factor receptor 2 (Homo sapiens, UniProt P35968); test: Inhibition of VEGF-induced VEGFR2 signal pathway in HUVECs assessed as reduction in p-VEGFR2 level at 12.5 uM relative to control; type: cell-based; details: HUVEC
Vascular endothelial growth factor receptor 2, sequence (P35968 whole entry): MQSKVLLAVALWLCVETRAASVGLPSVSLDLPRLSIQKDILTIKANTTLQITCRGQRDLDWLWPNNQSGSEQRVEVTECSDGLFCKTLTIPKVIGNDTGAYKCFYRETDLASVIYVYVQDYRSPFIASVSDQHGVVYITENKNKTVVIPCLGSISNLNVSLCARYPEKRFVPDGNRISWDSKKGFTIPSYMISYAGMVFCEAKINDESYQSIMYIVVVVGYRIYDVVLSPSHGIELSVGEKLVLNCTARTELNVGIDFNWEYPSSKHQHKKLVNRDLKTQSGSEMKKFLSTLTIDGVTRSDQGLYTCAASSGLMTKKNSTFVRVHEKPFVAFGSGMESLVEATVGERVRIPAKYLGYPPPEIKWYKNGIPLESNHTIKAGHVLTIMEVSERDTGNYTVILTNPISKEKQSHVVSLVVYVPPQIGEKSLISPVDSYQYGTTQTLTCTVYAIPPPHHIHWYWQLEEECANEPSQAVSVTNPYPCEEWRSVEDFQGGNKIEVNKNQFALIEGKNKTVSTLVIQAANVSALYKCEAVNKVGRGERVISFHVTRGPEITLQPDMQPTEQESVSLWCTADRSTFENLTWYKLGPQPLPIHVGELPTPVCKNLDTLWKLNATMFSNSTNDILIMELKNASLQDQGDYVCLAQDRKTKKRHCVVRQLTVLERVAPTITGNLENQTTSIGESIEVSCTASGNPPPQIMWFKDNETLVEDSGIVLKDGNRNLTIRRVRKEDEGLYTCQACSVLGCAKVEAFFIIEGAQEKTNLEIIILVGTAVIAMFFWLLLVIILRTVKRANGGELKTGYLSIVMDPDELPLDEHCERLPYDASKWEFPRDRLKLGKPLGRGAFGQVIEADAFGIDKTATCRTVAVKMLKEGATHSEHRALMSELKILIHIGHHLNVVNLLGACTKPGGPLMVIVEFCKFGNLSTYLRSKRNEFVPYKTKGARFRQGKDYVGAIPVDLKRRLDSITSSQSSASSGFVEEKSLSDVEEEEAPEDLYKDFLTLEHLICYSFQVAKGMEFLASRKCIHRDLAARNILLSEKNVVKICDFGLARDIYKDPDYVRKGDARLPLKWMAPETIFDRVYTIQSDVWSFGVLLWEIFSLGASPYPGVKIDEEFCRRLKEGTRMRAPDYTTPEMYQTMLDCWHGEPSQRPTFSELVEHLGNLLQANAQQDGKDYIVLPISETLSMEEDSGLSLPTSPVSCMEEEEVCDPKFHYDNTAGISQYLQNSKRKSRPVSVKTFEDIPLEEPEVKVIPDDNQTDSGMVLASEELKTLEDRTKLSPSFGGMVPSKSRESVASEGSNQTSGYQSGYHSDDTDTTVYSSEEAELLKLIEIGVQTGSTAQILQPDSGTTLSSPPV

PC-3 [33] = test: Antitumor activity against human PC-3 cells xenografted in BALB/c nude mouse assessed as reduction in tumor volume at 5 to 10 mg/kg, ip administered every 4 days for 20 days; type: functional, organism-based; details: dose 5-10 mg/kg, time 20.0 day
PC-3 [34] = test: Antitumor activity against human PC-3 cells xenografted in BALB/c nude mouse assessed as reduction in tumor weight at 5 to 10 mg/kg, ip administered every 4 days for 20 days; type: functional, organism-based; details: dose 5-10 mg/kg, time 20.0 day
[35] = Toxicity in BALB/c mouse xenografted with human PC-3 cells assessed as change body weight at 5 to 10 mg/kg, ip administered every 4 days for 20 days; type: organism-based; details: in vivo, 480 h, dose 5-10 mg/kg, time 20 day
[36] = Toxicity in BALB/c mouse xenografted with human PC-3 cells assessed as change in spleen morphology at 5 to 10 mg/kg, ip administered every 4 days for 20 days by H and E staining based inverted microscopic assay; type: organism-based; details: in vivo, 480 h, dose 5-10 mg/kg, time 20 day
[37] = Half life in Sprague-Dawley rat at 1.5 mg/kg, po measured upto 24 hrs by LC-MS/MS analysis; type: ADME, organism-based; details: in vivo

inhibition (Tubulin (Homo sapiens) [1]): 96% | IC50 (Tubulin): 0.71 µM | IC50 [2]: > 10 µM | IC50 [3]: > 10 µM | IC50 [4]: > 10 µM | IC50 [5]: > 10 µM | IC50 [6]: > 10 µM | IC50 [7]: > 10 µM | IC50 [8]: > 10 µM | IC50 [9]: > 10 µM | IC50 [10]: > 10 µM | IC50 [11]: > 10 µM | IC50 [12]: > 10 µM | IC50 [13]: > 10 µM | IC50 [14]: > 10 µM | inhibition (Tubulin (Homo sapiens) [15]): Active | inhibition (Tubulin (Homo sapiens) [16]): Active | inhibition [32]: 50% | half-life [37]: 13.8 h
Structure (SMILES): COc1ccc(/C=C\c2cc(OC)c(OC)c(OC)c2)cc1NC(=O)CCC(=O)N[C@@H](CCCNC(=N)N)C(=O)O
Activity (CWR22R): Active | Activity (PC-3 [17]): 4.48% | Activity (PC-3 [18]): 1.95% | Activity (PC-3 [19]): 11.58% | Activity (PC-3 [20]): 3.67% | Activity (PC-3 [21]): 51.13% | Activity (PC-3 [22]): 14.02% | viability at 0.1 µM (PC-3 [23]): 93.6% | viability at 0.5 µM (PC-3 [24]): 91.6% | Activity (PC-3 [25]): 2.95% | Activity (PC-3 [26]): 5.32% | Activity (PC-3 [27]): 3.63% | viability at 12.5 µM (PC-3 [28]): 89.4% | Activity (PC-3 [29]): 4.55% | Activity (PC-3 [30]): 6.04% | Activity (PC-3 [31]): Active | Activity (PC-3 [33]): Active | Activity (PC-3 [34]): Active | Activity [35]: Non-Toxic | Activity [36]: Non-Toxic
